These are literature values, as cited in patent US12582625B2, “Methods for treating neuroblastoma” (priority 2015, dated 2026).

For series [1] the following is noted: in vivo; cited from earlier work.
For series [2] the following is noted: cited from earlier work.
For series [3] the following is noted: human, in vivo; cited from earlier work.
Series [4] relates to tumors harboring Ki-ras mutations. To be noted: AOM-treated rats, reduced from 90% (Singh et al., 1994); cited from earlier work.

SMILES strings stand for the structures.

On to `Cc1ccc(-c2cc(C(F)(F)F)nn2-c2ccc(S(N)(=O)=O)cc2)cc1` [celecoxib, 4-[5-(4-Methylphenyl)-3-(trifluoromethyl)pyrazol-1-yl]benzenesulfonamide], for which, in series [1], the “increase in rates of heart and blood vessel disease” value is reported as 30%; the “risk of gastrointestinal side effects” value is listed as “greater than 80%”.
On to `CC1=C(CC(=O)O)c2cc(F)ccc2/C1=C\c1ccc([S+](C)[O-])cc1` (stereo not shown) [sulindac, (Z)-5-fluoro-2-methyl-1-((4-(methylsulfinyl)phenyl)methylene)-1H-chemical indene-3-acetic acid], for which the drug absorbed result in series [2] (after oral administration) was “about 90%”. For the same compound, in series [2] (fasting patients), the “time to peak plasma levels” value is given as “about 2 hours”. Also, in series [3], the “patients with mild gastrointestinal effects” value was roughly 20%; the “patients with skin rash and pruritus” value is 5%.
With `CN1C(C(=O)Nc2ccccn2)=C(O)c2ccccc2S1(=O)=O` [piroxicam, 4 hydroxy-2-methyl-N-2-pyridyl-2H-1,2-benzothiazine-3-carboxamide 1,1-dioxide], the “tumors harboring Ki-ras mutations” value in series [4] is listed as 25%.
